Experimental data taken from patent US12102631B2, “Quinolylnitrones for the treatment and prevention of a cerebral stroke or ischaemia” (ISQUAEMIA BIOTECH, S.L., priority 2018, dated 2024).

Key:
[1] = Superoxide radical scavenging (hypoxanthine/xanthine oxidase system); format: biochemical; conditions: tested at 100 μM (0.1 mM)
Source text: 3.7. Superoxide radical scavenging activity. Superoxide anion radical (O2⋅−) is less toxic than hydroxyl radical, but still one of the most known harmful toxic ROS. In physiological conditions, superoxide dismutase catalyzes its conversion to H2O2, which is the precursor for the formation of hydroxyl radicals in the presence of iron ions.43 Superoxide anion radicals O2⋅− and H2O2 are ROS produced in vivo through a one-electron reduction process of O2. The evaluation of superoxide anion radical scavenging activity can be determined using assays involving non-enzymatic or enzymatic production of superoxide anions. In this assay, superoxide anion radicals were generated by a hypoxanthine and xanthine oxidase reaction system, and the O2⋅− scavenging activity (%) has been measured spectrophotometrically.

[2] = test system: primary neuronal cultures from rat cerebral cortex; assay: Neuroprotection (MTT cell viability) in primary neuronal cultures exposed to oxygen-glucose deprivation (OGD); format: cell-based; conditions: 24 h recovery after 4 h OGD; for neuronal viability compared with R24 h (in words): concentrations as stated or in FIG. 4
Method: Primary neuronal cultures. Primary neuronal cultures from rat cerebral cortex were prepared as previously described.^54 All procedures associated with animal experiments were approved by the Ethics Committee of the Hospital Ramón y Cajal, Madrid (Spain). Cell suspensions from cerebral cortex were prepared from 16- to 17-day-old Sprague-Dawley rat embryos. Living cells in cell suspension were counted by trypan blue exclusion method. Cells were seeded on plastic multidishes precoated with 0.05 mg/mL poly-D-lysine at a density of 2.5×10^5 cells/cm^2 and were kept at 37° C. in a 6.5% CO2 atmosphere in high glucose Dulbecco's medium supplemented with 15% heat-inactivated (56° C. for 30 min) foetal calf serum. After 24 h, cultured cells were […] to induce experimental ischemia.^23 Cultured cells were washed and placed in glucose-free Dulbecco's medium (bubbled with 95% N2/5% CO2 for 30 min), and maintained in a humidified hypoxia chamber equipped with an oxygen and carbon dioxide control unit (Biospherix) at 6.5% CO2 and <0.1% O2 in N2 at 37° C. Cells were exposed to OGD for a period of 4 h (OGD 4 h). At the end of the OGD period, culture medium was replaced with oxygenated serum-free medium, and cells were placed and maintained in the normoxic incubator for 24 h to recovery (R24 h). In the neuroprotection experiments, the compounds were added at the onset of recovery period. Control cultures in Dulbecco's medium containing glucose were kept in the normoxic incubator for the same period of time as the OGD, and then medium (Dulbecco's/Ham's F12, 1:1 [vol/vol], 5 mg/mL glucose, 2 mM L-glutamine, and 1 mM sodium pyruvate, and supplemented with 100 μg/mL transferrin, 100 μM putrescine, 20 nM progesterone, 30 nM sodium selenite and 5 μg/mL insulin). Here, 6-7 day old cultured neurons were used in the experiments, and contained 90% β-III-tubulin-positive mature neurons, as described previously.^55
Exposure of cell cultures to oxygen-glucose deprivation and treatments. Primary neuronal cultures were exposed to […]. Control experiments included the same amounts of vehicle (final concentration<0.5% ethanol). Nitrone 2 was used as reference compound for neuroprotection. The experimental procedures were blindly performed, assigning a random order to each assayed nitrone. Nitrones were analyzed independently four-eight times with different batch of cultures and each experiment was run in quadruplicate.
Cell viability assay. Cell viability was evaluated by quantification of living, metabolically active cells, as determined by a colorimetric assay using the photometric reduction of 3-(4,5-dimethylthiazol-2-yl)-2,5-diphenyl tetrazolium bromide (MTT) (Roche) to a blue formazan product. The assay of living, metabolically active cells was performed by incubating with 0.2 mg/mL MTT in the culture medium for 1.5 h in an incubator at 37° C. in a 6.5% CO2 atm. After the incubation period, cells were lysed with an equal volume of 10 mM HCl and 10% SDS overnight. Values were quantified by absorbance (test 595 nm, reference 690 nm). Decreased MTT activity denotes impairment of mitochondrial function and is considered to be an index of cell damage. Primary neuronal cultures were collected at times indicated for MTT determination.
Neuroprotection of compounds was evaluated by a cell viability assay. The neuroprotective effect of the compounds 5-32 was evaluated on primary neuronal cultures from cerebral cortex subjected to oxygen-glucose deprivation (OGD) to induce experimental ischemia. Afterwards, cultured neurons were placed and kept in normoxic and normoglycemic conditions to recovery. […]

soybean lipoxygenase LOX = molecular target: T1, soybean lipoxygenase LOX (Glycine max, UniProt P08170); assay: Lipoxygenase (LOX) inhibition, UV-based enzyme assay; format: biochemical; conditions: for LOX (%): tested at 100 μM
T1 sequence (P08170 1-839): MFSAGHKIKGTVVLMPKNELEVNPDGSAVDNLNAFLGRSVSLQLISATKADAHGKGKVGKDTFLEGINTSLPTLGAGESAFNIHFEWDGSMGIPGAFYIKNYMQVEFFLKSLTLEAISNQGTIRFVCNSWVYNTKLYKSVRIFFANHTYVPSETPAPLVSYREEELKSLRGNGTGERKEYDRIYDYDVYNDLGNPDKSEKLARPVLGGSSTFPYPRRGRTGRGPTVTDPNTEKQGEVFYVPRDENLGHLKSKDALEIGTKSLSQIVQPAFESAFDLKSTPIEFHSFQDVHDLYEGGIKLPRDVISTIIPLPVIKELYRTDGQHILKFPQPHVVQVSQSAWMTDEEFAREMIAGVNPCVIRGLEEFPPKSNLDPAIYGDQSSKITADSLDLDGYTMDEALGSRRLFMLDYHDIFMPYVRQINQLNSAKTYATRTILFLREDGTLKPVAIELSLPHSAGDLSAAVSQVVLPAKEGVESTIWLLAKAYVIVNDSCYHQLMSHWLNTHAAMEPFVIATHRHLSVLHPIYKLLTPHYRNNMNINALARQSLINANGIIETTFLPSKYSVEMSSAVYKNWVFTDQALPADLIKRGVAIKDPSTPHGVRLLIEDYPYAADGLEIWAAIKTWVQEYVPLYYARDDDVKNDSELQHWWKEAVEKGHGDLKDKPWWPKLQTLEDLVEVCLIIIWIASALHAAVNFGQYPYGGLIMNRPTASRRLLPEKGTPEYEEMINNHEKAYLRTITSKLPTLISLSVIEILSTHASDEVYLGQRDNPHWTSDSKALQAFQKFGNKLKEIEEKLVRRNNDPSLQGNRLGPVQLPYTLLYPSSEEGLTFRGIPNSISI
Source text: 3.5. Lipoxygenase inhibition of QNs. […] A key strategy to prevent potential damage to cellular compounds such as DNA, proteins and lipids is to reduce the free radical load. […] LOX index, a novel predictive biochemical marker for coronary heart disease and stroke. […] Thus, LOX inhibitors may provide multifactorial protection against ischemic injury. […] Most of the LOX inhibitors are often antioxidants or free radical scavengers.

[3] = Rattus norvegicus, R24 h = 0%, control = 100%

Row | Compound | O2*− (%) [1] | neuronal viability compared with R24 h (in words) [2] | viability at 100 µM [2, 3] | viability at 250 µM [2, 3] | viability at 500 µM ([2]; Rattus norvegicus, 500 μM, R24 h = 0%, control = 100%) | IC50 (soybean lipoxygenase LOX) | viability at 1 µM [2, 3] | viability at 10 µM [2, 3] | viability at 0.3 µM [2, 3] | LOX (%) (soybean lipoxygenase LOX)
1 | CC(C)(C)/[N+]([O-])=C/c1ccc(S(=O)(=O)O)cc1S(=O)(=O)O [Compound 2, sodium (Z)-4-((tert-butyloxidoazanylidene)methyl)benzene-1,3-disulfonate, reference compound] | no activity and no | only produced a significant neuroprotective effect at 250 μM | 42.8 ± 2.31% | 52.9 ± 2.52% | 46.5 ± 1.1% | 57.5 µM |  |  |  | 
2 | CC(C)(C)/[N+]([O-])=C/c1cc2ccccc2nc1Cl [Compound 18, (Z)—N-t-Butyl-1-(2-chloroquinolin-3-yl)methanimine oxide] | 16% |  | < 0% |  |  |  | 9.76 ± 0.84% | 29 ± 3.83% |  | 
3 | COc1ccc2nc(Cl)c(/C=[N+](/C)[O-])cc2c1 [Compound 22, (Z)-1-(2-Chloro-6-methoxyquinolin-3-yl)-N-methylmethanimine oxide] | 29% |  | < 0% | < 0% |  |  | < 0% | < 0% | < 0% | 26%
4 | CC(C)(C)/[N+]([O-])=C/c1cc2ccccc2[nH]c1=O [Compound 19, (Z)—N-tert-Butyl-1-(2-oxo-1,2-dihydroquinolin-3-yl)methanimine oxide] | 23% | significantly increased neuronal viability | 48.8 ± 2.29% | 55 ± 1.89% |  | 36.5 µM |  |  |  | 
5 | COc1ccc2nc(Cl)c(/C=[N+](\[O-])Cc3ccccc3)cc2c1 [Compound 24, (Z)—N-Benzyl-1-(2-chloro-6-methoxyquinolin-3-yl)methanimine oxide] | 12.5% |  | 38.9 ± 1.31% |  |  | 100 µM | 31.3 ± 1.38% | 29.7 ± 1.38% | < 0% | 
6 | COc1ccc2nc(Cl)c(/C=[N+](\[O-])C(C)(C)C)cc2c1 [Compound 23, (Z)—N-tert-Butyl-1-(2-chloro-6-methoxyquinolin-3-yl)methanimine oxide] | 5% | significantly increased neuronal viability | 77.1 ± 2.24% | 65.9 ± 2.87% |  |  |  | 52 ± 1.75% |  | 29%
7 | COc1ccc2nc(Cl)c(C=O)cc2c1 [Compound 32, 2-chloro-6-methoxyquinoline-3-carbaldehyde, reference compound] | 23% | nor carbaldehyde 32, the precursor of potent QN 23, showed neuroprotective activity | < 0% |  |  | 7.6 µM | < 0% | < 0% |  | 
